Holding throughout (assay type): cell-based
Test [1] deals with T1, human TLR8 (Homo sapiens, UniProt Q9NR97).
T1 construct: host or cells: HEK-Blue cells
T1 sequence (Q9NR97 27-1041): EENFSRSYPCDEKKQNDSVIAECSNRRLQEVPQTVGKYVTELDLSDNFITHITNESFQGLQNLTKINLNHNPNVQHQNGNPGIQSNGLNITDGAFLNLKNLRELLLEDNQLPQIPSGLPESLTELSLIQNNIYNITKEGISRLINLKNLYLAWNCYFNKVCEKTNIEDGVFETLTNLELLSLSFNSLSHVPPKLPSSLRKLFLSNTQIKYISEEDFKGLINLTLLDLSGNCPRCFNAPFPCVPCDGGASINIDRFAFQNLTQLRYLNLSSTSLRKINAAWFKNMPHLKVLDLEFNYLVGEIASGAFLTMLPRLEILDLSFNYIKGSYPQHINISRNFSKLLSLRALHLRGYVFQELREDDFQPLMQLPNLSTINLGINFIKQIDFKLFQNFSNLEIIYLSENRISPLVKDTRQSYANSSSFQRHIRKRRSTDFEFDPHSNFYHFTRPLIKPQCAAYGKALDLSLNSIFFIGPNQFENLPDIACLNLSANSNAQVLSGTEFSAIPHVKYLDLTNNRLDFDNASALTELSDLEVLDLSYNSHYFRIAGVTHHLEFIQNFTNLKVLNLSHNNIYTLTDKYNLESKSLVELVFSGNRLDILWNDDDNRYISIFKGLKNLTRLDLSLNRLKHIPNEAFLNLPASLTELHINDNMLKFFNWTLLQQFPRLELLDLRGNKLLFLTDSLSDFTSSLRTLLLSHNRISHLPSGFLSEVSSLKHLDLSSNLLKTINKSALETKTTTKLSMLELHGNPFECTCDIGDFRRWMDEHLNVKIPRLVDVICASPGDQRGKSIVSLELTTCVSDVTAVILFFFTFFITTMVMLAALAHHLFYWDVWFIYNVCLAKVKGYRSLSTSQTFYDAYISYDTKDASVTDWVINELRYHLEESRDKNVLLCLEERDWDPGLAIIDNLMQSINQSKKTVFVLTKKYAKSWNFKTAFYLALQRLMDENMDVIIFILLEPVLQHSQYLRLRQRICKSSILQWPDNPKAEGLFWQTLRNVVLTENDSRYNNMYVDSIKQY
In words: TLR8 inhibition reporter assay (HEK-Blue SEAP reporter, R848 stimulation). The note with it: HEK-Blue cells overexpressing human TLR8, SEAP reporter, R848 15.9 μM, 22 hour incubation. Put shortly: (§1)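 Screening used HEK-Blue cells overexpressing one human TLR (7, 8 or 9) and an IFN-β minimal promoter–NF-κB/AP-1 SEAP construct. Stimulation lasted 22 h at 37 °C with receptor-specific agonist: gardiquimod, R848 or ODN2006 at 7.5 μM, 15.9 μM and 5 nM.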

Test [2] concerns the target T2, human TLR9 (Homo sapiens, UniProt Q9NR96).
T2 construct: host or cells: HEK-Blue cells
T2 sequence (Q9NR96 26-1032): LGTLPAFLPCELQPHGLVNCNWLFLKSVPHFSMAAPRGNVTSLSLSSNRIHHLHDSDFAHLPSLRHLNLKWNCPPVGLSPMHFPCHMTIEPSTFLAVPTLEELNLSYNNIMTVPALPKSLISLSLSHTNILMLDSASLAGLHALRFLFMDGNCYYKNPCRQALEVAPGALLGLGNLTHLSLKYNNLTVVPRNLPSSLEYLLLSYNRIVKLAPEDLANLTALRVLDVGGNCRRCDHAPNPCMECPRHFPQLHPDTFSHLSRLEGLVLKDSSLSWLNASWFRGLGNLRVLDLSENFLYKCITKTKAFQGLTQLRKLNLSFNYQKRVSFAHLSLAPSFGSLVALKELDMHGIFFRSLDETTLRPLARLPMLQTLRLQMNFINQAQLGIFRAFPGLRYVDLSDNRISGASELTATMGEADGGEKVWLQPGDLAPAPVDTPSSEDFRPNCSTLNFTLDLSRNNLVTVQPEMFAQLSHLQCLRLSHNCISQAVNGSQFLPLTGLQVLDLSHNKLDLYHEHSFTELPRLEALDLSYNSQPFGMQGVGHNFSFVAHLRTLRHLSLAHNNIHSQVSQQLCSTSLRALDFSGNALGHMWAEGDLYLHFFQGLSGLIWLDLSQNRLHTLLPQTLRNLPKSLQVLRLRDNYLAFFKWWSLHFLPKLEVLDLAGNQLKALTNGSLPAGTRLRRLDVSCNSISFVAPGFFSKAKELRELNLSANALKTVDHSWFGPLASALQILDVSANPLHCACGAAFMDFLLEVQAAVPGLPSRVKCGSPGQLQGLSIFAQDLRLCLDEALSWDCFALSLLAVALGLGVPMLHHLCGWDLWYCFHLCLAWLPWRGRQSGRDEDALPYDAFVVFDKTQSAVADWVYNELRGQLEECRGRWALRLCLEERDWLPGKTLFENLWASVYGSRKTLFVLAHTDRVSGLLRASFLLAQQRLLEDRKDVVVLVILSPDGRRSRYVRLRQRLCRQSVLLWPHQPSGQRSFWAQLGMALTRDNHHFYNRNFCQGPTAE
In words: TLR9 inhibition reporter assay (HEK-Blue SEAP reporter, ODN2006 stimulation). The note with it: HEK-Blue cells overexpressing human TLR9, SEAP reporter, ODN2006 5 nM, 22 hour incubation. Put shortly:
as §1

Test [3] concerns the target T3, human TLR7 (Homo sapiens, UniProt Q9NYK1).
T3 construct: host or cells: HEK-Blue cells
T3 sequence (Q9NYK1 27-1049): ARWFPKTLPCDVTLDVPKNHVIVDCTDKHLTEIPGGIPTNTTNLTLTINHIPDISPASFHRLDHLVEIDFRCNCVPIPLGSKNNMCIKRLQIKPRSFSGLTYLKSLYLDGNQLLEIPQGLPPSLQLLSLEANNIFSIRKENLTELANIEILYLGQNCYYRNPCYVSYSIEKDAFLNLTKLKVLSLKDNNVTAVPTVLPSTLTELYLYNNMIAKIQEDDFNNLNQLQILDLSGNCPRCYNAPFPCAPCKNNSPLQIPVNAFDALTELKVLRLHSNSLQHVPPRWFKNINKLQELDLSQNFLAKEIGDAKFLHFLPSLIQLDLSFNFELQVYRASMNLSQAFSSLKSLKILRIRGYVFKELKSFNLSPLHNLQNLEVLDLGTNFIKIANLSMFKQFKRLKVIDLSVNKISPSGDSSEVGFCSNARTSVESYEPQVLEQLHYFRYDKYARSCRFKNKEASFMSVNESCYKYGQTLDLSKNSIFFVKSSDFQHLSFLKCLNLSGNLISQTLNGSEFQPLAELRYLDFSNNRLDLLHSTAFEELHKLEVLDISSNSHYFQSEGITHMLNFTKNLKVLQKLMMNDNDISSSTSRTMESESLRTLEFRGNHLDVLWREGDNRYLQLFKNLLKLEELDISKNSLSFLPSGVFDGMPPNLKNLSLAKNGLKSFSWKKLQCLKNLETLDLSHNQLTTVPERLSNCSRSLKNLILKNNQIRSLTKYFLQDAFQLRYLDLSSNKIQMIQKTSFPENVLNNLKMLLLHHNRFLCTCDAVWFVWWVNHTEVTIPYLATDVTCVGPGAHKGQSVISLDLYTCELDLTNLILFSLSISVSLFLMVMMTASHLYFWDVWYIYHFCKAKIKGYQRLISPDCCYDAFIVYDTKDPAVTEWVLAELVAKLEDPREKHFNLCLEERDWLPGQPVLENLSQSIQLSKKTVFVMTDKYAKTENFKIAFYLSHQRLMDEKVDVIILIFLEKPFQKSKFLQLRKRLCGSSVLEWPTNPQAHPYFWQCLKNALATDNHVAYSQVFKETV
Kind of test: TLR7 inhibition reporter assay (HEK-Blue SEAP reporter, gardiquimod stimulation). The note with it: HEK-Blue cells overexpressing human TLR7, SEAP reporter, gardiquimod 7.5 μM, 22 hour incubation. Put shortly: as §1

Take `Cc1cc(-c2[nH]c3ccc(C4CCN(CC(C)(C)O)CC4)cc3c2C(C)C)cn(CC(C)C)c1=O` [Example 328, 5-(5-(1-(2-hydroxy-2-methylpropyl)piperidin-4-yl)-3-isopropyl-1H-indol-2-yl)-1-isobutyl-3-methylpyridin-2(1H)-one]: the IC50 in test [1] was 54.7 nM; in test [2], 5970 nM; in test [3], 49.1 nM.

For `Cc1cc(-c2[nH]c3ccc(C4CCN(C(=O)CN(C)C)CC4)cc3c2C(C)C)cn(CC(C)C)c1=O` [Example 285, 5-(5-(1-(dimethylglycyl)piperidin-4-yl)-3-isopropyl-1H-indol-2-yl)-1-isobutyl-3-methylpyridin-2(1H)-one], the figures for the IC50 in test [1], in test [2] and in test [3] were 99.1 nM, 3410 nM and 14.6 nM, respectively.

In the case of `Cc1c(-c2[nH]c3ccc(C4CCNCC4)cc3c2C(C)C)cc(C#N)c(=O)n1C` [Example 23, 5-(3-isopropyl-5-(piperidin-4-yl)-1H-indol-2-yl)-1,6-dimethyl-2-oxo-1,2-dihydropyridine-3-carbonitrile], the IC50 is 15.1 nM in test [1], 6270 nM in test [2] and 62.8 nM in test [3].

`CC(C)c1c(-c2ccc(=O)n(C)c2)[nH]c2ccc(C3CCN(C(=O)CN(C)C)CC3)cc12` [Example 301, 5-(5-(1-(dimethylglycyl)piperidin-4-yl)-3-isopropyl-1H-indol-2-yl)-1-methylpyridin-2(1H)-one]: the results for the IC50 in test [1], in test [2] and in test [3] were 36.5 nM, 1830 nM and 25.7 nM, respectively.

On to `CCn1cc(-c2[nH]c3ccc(C4CCNCC4)cc3c2C(C)C)cc(Cl)c1=O` [Example 32, 3-chloro-1-ethyl-5-(3-isopropyl-5-(piperidin-4-yl)-1H-indol-2-yl) pyridin-2(1H)-one], for which the figures for the IC50 in test [1], in test [2] and in test [3] were 17.2 nM, 1070 nM and 1.8 nM, respectively.

In the case of `Cc1cc(-c2[nH]c3ccc(C4CCN(C(C)C)CC4)cc3c2C(C)C)cn(C)c1=O` [Example 182, 5-(3-isopropyl-5-(1-isopropylpiperidin-4-yl)-1H-indol-2-yl)-1,3-dimethylpyridin-2(1H)-one], the IC50 is 7.3 nM in test [1], 5550 nM in test [2] and 5.9 nM in test [3].

With `Cc1c(-c2[nH]c3ccc(C4CCNCC4)cc3c2C(C)C)cn(C)c(=O)c1C#N` [Example 24, 5-(3-isopropyl-5-(piperidin-4-yl)-1H-indol-2-yl)-1,4-dimethyl-2-oxo-1,2-dihydropyridine-3-carbonitrile], the IC50 in test [1] turned out to be 10.7 nM; in test [2], 3760 nM; in test [3], 75.9 nM.

`CC(C)c1cc(-c2[nH]c3ccc(C4CCNCC4)cc3c2C(C)C)cn(C)c1=O` [Example 66, 3-isopropyl-5-(3-isopropyl-5-(piperidin-4-yl)-1H-indol-2-yl)-1-methylpyridin-2(1H)-one]: the IC50 in test [1] was found to be 70.5 nM; in test [2], 764 nM; in test [3], 12.6 nM.

On to `Cc1cc(=O)n(C)cc1-c1[nH]c2ccc(C3CCNCC3)cc2c1C(C)C` [Example 8, 5-(3-isopropyl-5-(piperidin-4-yl)-1H-indol-2-yl)-1,4-dimethylpyridin-2(1H)-one], for which the IC50 in test [1] was 43.5 nM; in test [2], 957 nM; in test [3], 72.7 nM.

As to `Cc1c(-c2[nH]c3ccc(C4CCN(C(=O)CN(C)C)CC4)cc3c2C(C)C)cn(C)c(=O)c1C#N` [Example 274, 5-(5-(1-(dimethylglycyl)piperidin-4-yl)-3-isopropyl-1H-indol-2-yl)-1,4-dimethyl-2-oxo-1,2-dihydropyridine-3-carbonitrile], the IC50 in test [1] was determined as 15.3 nM; in test [2] it was 1590 nM; in test [3], 183 nM.

As for `Cc1cc(-c2[nH]c3ccc(C4CCN(CCCC(F)(F)F)CC4)cc3c2C(C)C)cn(CC(C)C)c1=O` [Example 110, 1-isobutyl-5-(3-isopropyl-5-(1-(4,4,4-trifluorobutyl)piperidin-4-yl)-1H-indol-2-yl)-3-methylpyridin-2(1H)-one], the IC50 is 163 nM in test [1], 5260 nM in test [2] and 56.1 nM in test [3].

As for `COc1cc(-c2[nH]c3ccc(C4CCNCC4)cc3c2C(C)C)cn(C)c1=O` [Example 20, 5-(3-isopropyl-5-(piperidin-4-yl)-1H-indol-2-yl)-3-methoxy-1-methylpyridin-2(1H)-one], the IC50 worked out at 17 nM in test [1], 1790 nM in test [2] and 6 nM in test [3].

With `Cc1cc(-c2[nH]c3ccc(C4CCN(CC(N)=O)CC4)cc3c2C(C)C)cn(C)c1=O` [Example 150, 2-(4-(2-(1,5-dimethyl-6-oxo-1,6-dihydropyridin-3-yl)-3-isopropyl-1H-indol-5-yl)piperidin-1-yl)acetamide], the IC50 in test [1] was 4.4 nM; in test [2], 11400 nM; in test [3], 1.2 nM.
